# Measurements: US20200055891A1, “NOVEL PHOSPHOTRIAZOLE MRNA 5'-END CAP ANALOGS, COMPOSITION COMPRISING THE SAME, RNA MOLECULE INCORPORATING THE SAME, USES THEREOF AND METHOD OF SYNTHESIZING RNA MOLECULE, PROTEIN OR PEPTIDE” (UNIWERSYTET WARSZAWSKI, priority 2016, published 2020)
# Counter-ions that a name gives are not always drawn.
# Legend:
# [1] = molecular target: T1, SP6 RNA polymerase (Enterobacteria phage SP6, UniProt P06221); assay: Capping efficiency: incorporation of cap analogues at the 5′ end of short transcripts by in vitro transcription; type: biochemical; details: 1.25 mM cap analogue, 0.125 mM GTP
# T1 construct: purchased New England BioLabs
# T1 sequence (P06221 1-874): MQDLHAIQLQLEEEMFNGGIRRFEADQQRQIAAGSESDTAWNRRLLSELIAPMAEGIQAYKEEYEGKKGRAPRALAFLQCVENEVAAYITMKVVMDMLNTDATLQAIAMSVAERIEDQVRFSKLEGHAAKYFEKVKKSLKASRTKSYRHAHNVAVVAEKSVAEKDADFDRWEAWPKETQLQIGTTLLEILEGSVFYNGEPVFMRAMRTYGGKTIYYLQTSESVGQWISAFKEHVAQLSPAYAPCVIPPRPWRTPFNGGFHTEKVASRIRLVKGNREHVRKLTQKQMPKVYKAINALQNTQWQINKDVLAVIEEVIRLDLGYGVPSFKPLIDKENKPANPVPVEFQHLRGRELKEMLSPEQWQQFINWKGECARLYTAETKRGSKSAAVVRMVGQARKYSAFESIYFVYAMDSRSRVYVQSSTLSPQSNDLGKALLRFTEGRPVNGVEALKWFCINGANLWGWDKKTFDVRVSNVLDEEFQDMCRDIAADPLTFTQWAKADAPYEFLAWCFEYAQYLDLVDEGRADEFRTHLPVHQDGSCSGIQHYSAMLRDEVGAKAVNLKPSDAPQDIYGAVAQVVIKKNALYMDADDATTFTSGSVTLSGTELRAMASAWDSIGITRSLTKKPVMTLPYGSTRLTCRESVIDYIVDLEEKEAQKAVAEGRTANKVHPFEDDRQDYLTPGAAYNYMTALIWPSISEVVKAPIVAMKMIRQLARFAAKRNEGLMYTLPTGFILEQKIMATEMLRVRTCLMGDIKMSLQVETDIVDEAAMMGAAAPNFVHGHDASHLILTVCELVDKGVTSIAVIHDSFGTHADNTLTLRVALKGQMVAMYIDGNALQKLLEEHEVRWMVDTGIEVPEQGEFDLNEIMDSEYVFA
# Experimental: Prior to in vitro transcription annealing of a template was performed. DNA1 (SEQ ID NO: 1) and DNA2 (SEQ ID NO: 2) (20 μM each) were incubated in the presence of 4 mM Tris-HCl pH 8.0, 15 mM NaCl and 0.1 mM EDTA at 95° C. for 2 min and then at room temperature for 30 min. After 10-fold dilution the mixture was directly used for in vitro transcription.
# The reaction was quenched by addition of 2 μl of 0.5 M EDTA pH 8.0 and purified with RNA Clean&Concentrator-5 kit (Zymo Research) to afford capped RNA1 (SEQ ID NO: 4) strands.
# To reduce heterogeneity, each capped RNA1 (11.42 ng/μl, ca. 1 μM) was incubated in presence of 50 mM Tris-HCl pH 8.0, 50 mM MgCl2, RiboLock RNase Inhibitor (ThermoFisher Scientific) (2.0 U/μl) and DNA3 (SEQ ID NO: 3) (1 μM) at 37° C. for 1 h to afford RNA2 (SEQ ID NO: 5).^44 The reaction was stopped by freezing in liquid nitrogen and directly analyzed by PAGE (FIG. 3).
# Relative bands intensity was determined using CLIQS v1.0 program.
# [2] = system: Rabbit Reticulocyte Lysate; assay: Translation efficiency of capped firefly luciferase mRNA in Rabbit Reticulocyte Lysate System; type: biochemical; details: relative, m^7GpppG = 1
# Experimental: The reaction was quenched by addition of 2 μl of 0.5 M EDTA pH 8.0 and purified with NucleoSpin RNA Clean-up XS kit (Macherey-Nagel) to afford luciferase-coding RNA strands capped with appropriate cap analogue.
# For each capped luciferase-coding RNA four diluted solutions were prepared—3.0 ng/μl, 1.5 ng/μl, 0.75 ng/μl, 0.375 ng/μl. Translation studies were performed using Rabbit Reticulocyte Lysate System (Promega). 9 μl of a mixture containing Rabbit Reticulocyte Lysate (4 μl), Amino Acid Mixture Minus Leucine (0.05 μl of 1 mM solution), Amino Acid Mixture Minus Methionine (0.05 μl of 1 mM solution), potassium acetate (1.9 μl of 1 M solution), MgCl2 (0.4 μl of 25 mM solution) and 2.1 μl of water was incubated at 30° C. for 1 h after which 1 μl of appropriate luciferase-coding RNA solution was added and incubation of the reaction was continued at 37° C. for another hour. The reaction was stopped by freezing in liquid nitrogen.
# Translation efficiency was determined using Luciferase Reporter System (Promega). The samples were defrosted just before the experiment. To every sample 50 μl of Luciferase Assay Reagent was added just before measurement of luminescence on Synergy H1 Microplate Reader (Bio Tek). The measurement were performed for every four samples independently due to low stability of luminescence signal. The results are presented on. FIG. 4 as proportions between regression coefficients of linear relationships between capped luciferase-coding RNA concentration in translation reaction (300 pg/μl, 150 pg/μl, 75 pg/μl, 37.5 pg/μl) and corresponding luminescence signal.
# [3] = Hydrolysis in D2O seen in NMR spectra; type: physicochemical; details: dissolved in D2O just before NMR measurement; given if higher than 5%
# Experimental: Some cap analogues hydrolyzed in D2O gradually. Although pure compounds (see HPLC profiles, Supporting Information 2) were dissolved in D2O just before measurements, the spectra indicated some level of hydrolysis. % of hydrolysis is provided along with compound characterization data, if higher than 5%.
# [4] = Stability studies in buffers pH 3-9, RP HPLC; type: physicochemical; details: room temperature; for % of remaining cap, Bufor pH 7, 4 h / % of remaining cap, Bufor pH 7, 24 h: 0.1 M HEPES pH 7.0, 20 μM; for % of remaining cap, Bufor pH 5, 4 h / % of remaining cap, Bufor pH 5, 24 h: 0.1 M acetate buffer pH 5.0, 20 μM; for % of remaining cap, Bufor pH 9, 4 h / % of remaining cap, Bufor pH 9, 24 h: 0.1 M borate buffer pH 9.0, 20 μM; for % of remaining cap, Bufor pH 3, 4 h / % of remaining cap, Bufor pH 3, 24 h: 0.1 M formate buffer pH 3.0, 20 μM
# Experimental: Analogues m2^7,2′-OGppp-triazole-C2H4NHppG, m2^7,2′-OGppp-triazole-C2H4OppG, m2^7,2′-OGppp-triazole-C2H4OpG, m2^7,2′-OGpp-triazole-C2H4OppG were incubated in sealed vials at 20 μM and at room temperature in four different buffers: 0.1 M formate buffer pH 3.0, 0.1 M acetate buffer pH 5.0, 0.1 M HEPES pH 7.0 and 0.1 M borate buffer pH 9.0. […] The starting compound peak area was determined for each time-point and % of remaining cap was calculated in reference to the time-point 0 h.
Compound,Capping efficiency [1] [%],Translation efficiency [2],hydrolysis in D2O [3] [%],"% of remaining cap, Bufor pH 7, 4 h [4] [%]","% of remaining cap, Bufor pH 7, 24 h [4] [%]","% of remaining cap, Bufor pH 5, 4 h [4] [%]","% of remaining cap, Bufor pH 5, 24 h [4] [%]","% of remaining cap, Bufor pH 9, 4 h [4] [%]","% of remaining cap, Bufor pH 9, 24 h [4] [%]","% of remaining cap, Bufor pH 3, 4 h [4] [%]","% of remaining cap, Bufor pH 3, 24 h [4] [%]"
"C[n+]1cn([C@@H]2O[C@H](COP(=O)(O)NCCn3cc(CP(=O)(O)OP(=O)([O-])OC[C@H]4O[C@@H](n5cnc6c(=O)[nH]c(N)nc65)C(O)C4O)nn3)C(O)C2O)c2nc(N)[nH]c(=O)c21 (stereo partly shown) [m^7GpNHC2H4tCH2ppG, m^7GpNHC2H4-triazole-CH2ppG]",47,0.085 ± 0.017,11,–,–,–,–,–,–,–,–
"m2^7,2′-OGppp-triazole-C2H4NHpG [m2^7,2′-OGppptC2H4NHpG]",41,1.462 ± 0.182,8,–,–,–,–,–,–,–,–
"C[n+]1cn([C@@H]2O[C@H](COP(=O)([O-])OP(=O)(O)NCCn3cc(CCP(=O)(O)OP(=O)(O)OC[C@H]4O[C@@H](n5cnc6c(=O)[nH]c(N)nc65)[C@@H](O)C4O)nn3)C(O)[C@@H]2O)c2nc(N)[nH]c(=O)c21 (stereo partly shown) [m^7GppNHC2H4tC2H4ppG, m^7GppNHC2H4-triazole-C2H4ppG]",30,0.239 ± 0.028,11,–,–,–,–,–,–,–,–
"C[n+]1cn([C@@H]2O[C@H](COP(=O)(O)OP(=O)([O-])c3cn(CCNP(=O)(O)OC[C@H]4O[C@@H](n5cnc6c(=O)[nH]c(N)nc65)C(O)C4O)nn3)C(O)C2O)c2nc(N)[nH]c(=O)c21 (stereo partly shown) [m^7GpptC2H4NHpG, m^7Gpp-triazole-C2H4NHpG]",56.8,0.50 ± 0.06,–,–,–,–,–,–,–,–,–
"COC1C(O)[C@@H](COP(=O)(O)OP(=O)([O-])c2cn(CCOP(=O)(O)OP(=O)(O)OC[C@H]3O[C@@H](n4cnc5c(=O)[nH]c(N)nc54)C(O)C3O)nn2)O[C@H]1n1c[n+](C)c2c(=O)[nH]c(N)nc21 (stereo partly shown) [m2^7,2′-OGpptC2H4OppG, m2^7,2′-OGpp-triazole-C2H4OppG]",44.2,1.675 ± 0.168,–,–,–,–,–,–,–,–,–
"COC1C(O)[C@@H](COP(=O)(O)OP(=O)(O)OP(=O)([O-])c2cn(CCNP(=O)(O)OP(=O)(O)OC[C@H]3O[C@@H](n4cnc5c(=O)[nH]c(N)nc54)C(O)C3O)nn2)O[C@H]1n1c[n+](C)c2c(=O)[nH]c(N)nc21 (stereo partly shown) [m2^7,2′-OGppptC2H4NHppG, m2^7,2′-OGppp-triazole-C2H4NHppG]",43.0,2.226 ± 0.399,–,0,0,0,0,0.5,3.0,19.0,72.9
"C[n+]1cn([C@@H]2O[C@H](COP(=O)(O)NCCn3cc(P(=O)([O-])OP(=O)(O)OC[C@H]4O[C@@H](n5cnc6c(=O)[nH]c(N)nc65)C(O)C4O)nn3)C(O)C2O)c2nc(N)[nH]c(=O)c21 (stereo partly shown) [m^7GpNHC2H4tppG, m^7GpNHC2H4-triazole-ppG]",57,0.075 ± 0.009,14,–,–,–,–,–,–,–,–
"COC1C(O)[C@@H](COP(=O)(O)OP(=O)(O)OP(=O)([O-])c2cn(CCOP(=O)(O)OC[C@H]3O[C@@H](n4cnc5c(=O)[nH]c(N)nc54)C(O)C3O)nn2)O[C@H]1n1c[n+](C)c2c(=O)[nH]c(N)nc21 (stereo partly shown) [m2^7,2′-OGppptC2H4OpG, m2^7,2′-OGppp-triazole-C2H4OpG]",47.6,2.773 ± 0.293,–,0,0,0,0,0.1,1.2,0,0
"COC1C(O)[C@@H](COP(=O)(O)OP(=O)(O)OP(=O)([O-])c2cn(CCOP(=O)(O)OP(=O)(O)OC[C@H]3O[C@@H](n4cnc5c(=O)[nH]c(N)nc54)C(O)C3O)nn2)O[C@H]1n1c[n+](C)c2c(=O)[nH]c(N)nc21 (stereo partly shown) [m2^7,2′-OGppptC2H4OppG, m2^7,2′-OGppp-triazole-C2H4OppG]",38.0,1.749 ± 0.263,–,0,0,0,0,–,–,0,0
"Nc1nc2c(ncn2[C@@H]2O[C@H](COP(=O)(O)OP(=O)(O)OP(=O)(O)OC[C@H]3O[C@@H](n4cnc5c(=O)[nH]c(N)nc54)[C@H](O)[C@@H]3O)[C@@H](O)[C@H]2O)c(=O)[nH]1 [GpppG, reference compound]",92,0.058 ± 0.008,–,–,–,–,–,–,–,–,–
"C[n+]1cn([C@@H]2O[C@H](COP(=O)(O)OP(=O)(O)CCc3cn(CCNP(=O)(O)OP(=O)([O-])OC[C@H]4O[C@@H](n5cnc6c(=O)[nH]c(N)nc65)[C@@H](O)C4O)nn3)[C@H](O)C2O)c2nc(N)[nH]c(=O)c21 (stereo partly shown) [m^7GppC2H4tC2H4NHppG, m^7GppC2H4-triazole-C2H4NHppG]",48.8,0.085 ± 0.017,10,–,–,–,–,–,–,–,–
"C[n+]1cn([C@@H]2O[C@H](COP(=O)([O-])OP(=O)(O)Cc3cn(CCNP(=O)(O)OC[C@H]4O[C@@H](n5cnc6c(=O)[nH]c(N)nc65)C(O)C4O)nn3)C(O)C2O)c2nc(N)[nH]c(=O)c21 (stereo partly shown) [m^7GppCH2tC2H4NHpG, m^7GppCH2-triazole-C2H4NHpG]",54,0.155 ± 0.019,–,–,–,–,–,–,–,–,–
"[N-]=[N+]=NCCNP(=O)(O)OP(=O)(O)OC[C@H]1O[C@@H](n2cnc3c(=O)[nH]c(N)nc32)[C@H](O)[C@@H]1O [GppNHC2H4N3, N-(2-azidoethyl) β-phosphoramidate guanosine diphosphate ammonium salt]",–,–,15,–,–,–,–,–,–,–,–
